Laboratory results taken from article PMC11796224, “Merck Open Global Health Library in vitro screening against Schistosoma mansoni identified two new substances with antischistosomal activities for further development” (Parasites & Vectors, 2025).
Where two headings read alike, the source gives them in different places.

Legend:
adult S. mansoni couples = experiment: In vitro screening of OGHL compounds and analogues against adult S. mansoni couples (Giessen); type: cell-based, Schistosoma mansoni; details: 10 µM; for Effect on egg production: after 24 h, compared to control
Method: For in vitro culture in Giessen, M199 medium (Gibco) containing 10% newborn calf serum, 1% HEPES (1 M) and 1% ABAM solution (10,000 units penicillin, 10 mg streptomycin and 25 µg amphotericin B per millilitre) were used. After perfusion, the worms were transferred to petri dishes with 5 mL medium using featherweight tweezers. The worms were cultured at 37 °C and 5% CO2. After 24 h, stably paired couples were selected for inhibitor assays.
The initial screening by the Giessen team covered the 250 compounds of the OGHL, and in a subsequent, second screening approach, an additional 58 analogues of the compounds OGHL22 and OGHL121, which were tested on S. mansoni couples in vitro. For each compound, three replicates of five couples randomised from different hamsters were used. The couples were transferred to 6-well plates (or 12-well plates) containing 2 mL pre-heated medium. For each compound, the stock solution was pre-diluted in pre-heated medium, and then added to each replicate, resulting in a final volume of 2.5 mL and a final concentration of 10 µM. A negative control was included for all assays. For this, three replicates were prepared with DMSO (0.1%) as volume substitution of the stock solution. The worms were cultured at 37 °C and 5% CO2. As physiological parameters, worm motility, pairing stability, and attachment were assessed after 4 h and 24 h. After 24 h, egg production was also estimated (see below).
For the first screening approach, the Giessen team evaluated pairing stability by counting couples at the time of scoring. Attachment was determined by counting the number of worms (couples or single worms) that were attached to any surface. Motility was scored on a scale of 0–4. The average activity of the worms in the negative control was used as a reference value for normal activity: 4 indicated increased activity, 3 normal activity, 2 reduced activity, 1 little activity with occasional head and tail movements and/or gut movement, 0 no activity for at least 20 s. The number of eggs was estimated after 24 h. Compared to the control, categories for egg production were defined as fewer eggs (score 0), similar numbers of egg (score 1) and more eggs (score 2). The corresponding percentages of the scores were determined based on three replicates. Score 0 corresponded to less than 50% eggs, score 1 to 50–200%, and score 2 to over 200% of the egg count compared to the negative control. The means of the scores were later normalized to the range 0–2 (0–200%).

[1] = system: newly transformed schistosomula (NTS); experiment: In vitro screening against newly transformed schistosomula (Basel); type: cell-based, Schistosoma mansoni; details: 10 µM, 72 h incubation, Basel team
Method: At the Basel lab, infected B. glabrata snails were placed for 4 h under a light source to initiate the shedding of cercariae, which were collected, mechanically transformed into NTS, and kept in M199 medium supplemented with 5% fetal calf serum (FCS), 1% Mäsermix, and 1% penicillin/streptomycin (pen./strep.) 10,000 U/ml, at 37 °C and 5% CO2 [27]. To collect adult S. mansoni, mesenteric veins of infected hamsters were dissected on day 49 post-infection. The worms were placed in supplemented RPMI 1640 medium (containing 5% FCS, 1% pen., and 100 μg/ml strep.) and incubated at 37 °C with 5% CO2 until further use.
The Basel team performed the screening as follows: the stock solutions of each compound from the library (10 mM) were diluted with M199 medium (supplemented with 1% pen./strep., 1% Mäsermix, 5% FCS) and NTS solution (0.7 NTS/µL) in a transparent flat-bottom 96-well plate (Sarstedt, Switzerland), resulting in a final volume of 250 µL, 30–40 NTS, and a drug concentration of 10 µM. For adults, the drugs were diluted to 10 µM in 2 mL with RPMI 1640 medium (supplemented with 1% pen./strep. and 5% FCS) in a 24-well plate (Sarstedt, Switzerland), and three schistosome couples were added. […] For both life stages, DMSO served as a negative control (< 1% of the final volume). The plates were incubated at 37 °C and 5% CO2. […]

Schistosoma mansoni = details: cited from earlier work

Row | Compound | Effect on egg production (adult S. mansoni couples) | other results
1 | CC1(C)Oc2ccc(C#N)cc2[C@H](n2ccccc2=O)[C@H]1O [OGHL00027] | affected | 
2 | CCCCc1nc2ccn(Cc3ccccc3C(=O)O)c(=O)c2n1Cc1ccc(-c2ccccc2-c2nn[nH]n2)cc1 [OGHL00034] | affected | 
3 | CCCSc1cc(C)c(C(=O)N=C(N)N)cc1S(C)(=O)=O [OGHL00050] | affected | 
4 | CCc1cc(C)c(C(=O)N=C(N)N)cc1S(C)(=O)=O [OGHL00053] | affected | 
5 | Cc1cc(C2CCC2)c(S(C)(=O)=O)cc1C(=O)N=C(N)N [OGHL00061] | affected | 
6 | O=C(O)c1ccc(-c2nc(NCc3ccccc3)c3c4c(sc3n2)CCCC4)cc1 [OGHL00079] | affected | 
7 | COc1ccc(CNc2nc(CCCCC(=O)O)nc3sc4c(c23)CCCC4)cc1Cl [OGHL00092] | affected | 
8 | O=C(O)c1ccc(-c2nc(NCc3ccc4c(c3)OCO4)c3cc(Cl)sc3n2)cc1 [OGHL00093] | affected | 
9 | COC(=O)c1cc(C(=O)N=C(N)N)c(C)cc1C [OGHL00094] | affected | 
10 | COc1ccc(CNc2nc(CCCCC(=O)O)nc3sc4ccccc4c23)cc1Cl [OGHL00101] | affected | 
11 | CCCCCCN(Cc1ccc(C#Cc2ccc(CCCC)cc2)cc1)c1ccc(O)c(C(=O)O)c1 [OGHL00126] | affected | 
12 | COc1nc(/C=C/c2nc3n(n2)CCCC3c2ccccc2C(F)(F)F)ccc1-n1cnc(C)c1 (centres unmarked) [OGHL00208] | affected | 
13 | COc1cc(C(=O)Nc2cn(Cc3ccc(Cl)c(Cl)c3)nn2)ccc1-n1cnc(C)c1 [OGHL00219] | affected | 
14 | COc1ccc(OCC(N)=O)cc1-c1cn2cc(C(=O)NCCc3c(OC)cccc3OC)sc2n1 [OGHL00241] | affected | 
15 | O=C(C1CCCCC1)N1CC(=O)N2CCc3ccccc3[C@@H]2C1 [OGHL00244, (R)-PZQ, reference compound] | drastically reduced | Attachment after 4 h (adult S. mansoni couples; adult couples, Giessen team): strong effects on attachment capacity; Pairing stability after 4 h (adult S. mansoni couples; adult couples, Giessen team): no effect on pairing stability; Pairing stability after 24 h (adult S. mansoni couples; adult couples, Giessen team): no effect on pairing stability; Activity against NTS [1]: greater than 65%
16 | O=C(C1CCCCC1)N1CC(=O)N2CCc3ccccc3[C@H]2C1 [OGHL00245] |  | Couples separated after 4 h (adult S. mansoni couples): > 50%; Couples separated after 24 h (adult S. mansoni couples): separation of all couples
17 | COc1ccc(OCC(=O)O)cc1-c1cn2cc(C(=O)NCCc3c(OC)cc(Cl)cc3OC)sc2n1 [OGHL00248] | affected | 
18 | O=C(C1CCCCC1)N1CC(=O)N2CCc3ccccc3C2C1 (centres unmarked) [PZQ, praziquantel] |  | EC50 (Schistosoma mansoni; at 4 h): 0.1 µg/mL; EC50 (Schistosoma mansoni; at 72 h, ref 32, read-out: EC50): 100 nM; EC50 (Schistosoma mansoni; at 72 h, ref 33): 0.05 µg/mL; Motility score in the initial approach (adult S. mansoni couples; within 24 h): about 0
